Usually IC50 stands for the midpoint of a concentration-inhibition curve. A higher IC50 goes with lower potency.

The record followed here is US9867833B2, “Serine/threonine kinase inhibitors” (GENENTECH, INC., priority 2013, dated 2018).

This assay concerns the target human ERK-2 (Mitogen Activated Kinase 1) (Homo sapiens (Human), UniProt P28482). The experiment in a line: ERK-2 Enzymatic Assay. The assay is classed as biochemical. The conditions noted are these: human ERK-2 enzyme 5 nM, 25 μM ATP, S/T17 peptide substrate; isomer = configuration of CR2R3. The method in brief: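 Recombinant human ERK-2 (aa 8-360, N-terminal 6-His, E. coli) with 3-fold serially diluted compound. Per-well rates from linear fits converted to percent of control; IC50 by four-parameter fit.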

Each structure is given as a SMILES string. Where only a bound is given, the exact number is not on record here.

human ERK-2 (Mitogen Activated Kinase 1), sequence (P28482 8-360): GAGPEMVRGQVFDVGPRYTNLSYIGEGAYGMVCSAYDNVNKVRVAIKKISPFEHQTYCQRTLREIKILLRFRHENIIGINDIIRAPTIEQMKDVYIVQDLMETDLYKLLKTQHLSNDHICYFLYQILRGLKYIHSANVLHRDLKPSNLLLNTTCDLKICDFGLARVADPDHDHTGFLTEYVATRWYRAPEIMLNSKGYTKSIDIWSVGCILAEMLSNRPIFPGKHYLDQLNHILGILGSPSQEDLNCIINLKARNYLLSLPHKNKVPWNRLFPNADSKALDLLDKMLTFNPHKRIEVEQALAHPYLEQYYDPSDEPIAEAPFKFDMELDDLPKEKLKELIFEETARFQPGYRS

In the case of `CN1C(=O)N(Cc2cccc(Cl)c2)c2nnc3cc(-c4ccnc(Nc5ccnn5C)n4)cc1n23` [Compound I-100, 3-(3-chlorobenzyl)-5-methyl-7-(2-((1-methyl-1H-pyrazol-5-yl)amino)pyrimidin-4-yl)-3H-1,2,2a^1,3,5-pentaazaacenaphthylen-4(5H)-one], the IC50 was less than 0.02 nM.
